Assay [1] relates to PA01*. Description: Growth in TSBD plus 100 μM iron medium with propionate. Type of assay: cell-based, P. aeruginosa. The following applies: 0.05% propionate, with and without 50 mM glutamate, FIG. 3.
The test system of a further assay is mucoid clinical isolates. Description: Effect of propionate on growth of mucoid clinical isolates. Format: cell-based. The conditions noted are these: low concentrations of propionate, FIG. 4, vs non-mucoid BH1 and revertant BAB.
Assay [2] has as its system FRD1 with disrupted aconitase C gene. Description: Growth on propanediol with added propionic acid. Format: cell-based, P. aeruginosa. The following applies: propanediol medium. The source says:
(§1) In addition to PA01, an additional mucosal strain, FRD1 with gentamicin resistance was subjected to disruption of the acnC gene, as was a mucoid clinical isolate. For comparison, aconitase A was also similarly disrupted. All of the strains behaved similarly in respect to their ability to grow on propanediol in the presence and absence of propionic acid.

Assay [3] has as its system PA01 with disrupted aconitase C gene. Kind of assay: Growth on propanediol with added propionic acid. Type of assay: cell-based, P. aeruginosa. The conditions noted are these: propanediol medium.
Source text: as §1

The next assay relates to PA01 wildtype. Kind of assay: Growth on various carbon sources. Type of assay: cell-based, P. aeruginosa. The conditions noted are these: substance used as carbon source. The source says: (§2) When tested for growth on various carbon sources, no difference was observed when glucose, glutamate, citrate, isocitrate, succinate, acetate, pyruvate, butyrate, hexonate, or glyoxalate was used as a carbon source.

Assay [4] concerns acnC disrupted strain (PA01*). Description: Growth on various carbon sources. The following applies: substance used as carbon source. Type of assay: cell-based, P. aeruginosa.
Source text: as §2

Assay [5] relates to FRD1. Kind of assay: Effect of propionate on antibiotic susceptibility (antibiotic discs). Format: cell-based, P. aeruginosa. The conditions noted are these: 0.2% propionate. The procedure: (§3) The effect of various concentrations of propionate on the ability of antibiotics to curtail the growth of PA01 or FRD1 was tested. Levels of 0.2% propionate appeared to have no effect on PA01 growth in the presence of the antibiotics amikacin, carbenicillin, ciprofloxacin, tobramycin, and tetracycline. Growth was assured by the diameter of colonies formed in the presence of discs containing amikacin (AN-30), 30 μg, carbenicillin (CB-100), 100 μg, ciprofloxacin (CIP-5), 5 μg, tobramycin (NN-10), 10 μg, or tetracycline (TE-30), 30 μg.

The subject of assay [6] is PA01. The description is as above. Format: cell-based, P. aeruginosa. The conditions noted are these: 0.2% propionate; amikacin, carbenicillin, ciprofloxacin, tobramycin, tetracycline discs. The procedure: as §3
Assay [7] concerns PA01*. Description: Growth in LB medium with 0.4% propionate. Format: cell-based, P. aeruginosa. As to the method:
(§4) The effect of the addition of 0.4% propionate to LB medium containing wildtype PA01, PA01*, and the more sensitive mucoid strain FRD1, was also tested.

In assay [8] the test system is FRD1. Kind of assay: Growth in LB medium with 0.4% propionate. Type of assay: cell-based, P. aeruginosa. As to the method: as §4
Assay [9] relates to wildtype PA01. Description: Growth in LB medium with 0.4% propionate. Type of assay: cell-based, P. aeruginosa. The procedure: as §4
In another assay the test system is FRD1 cells. Description: Attachment of cells to plastic tubes (absorbance at 570 nm). Format: cell-based, P. aeruginosa. The following applies: as low as 0.1% propionate. As to the method:
(§5) As mucoid production is necessary for attachment, the effect on mucoid production of addition of propionate can be tested by assessing the level of attachment of the cells to plastic tubes. This was measured as the absorbance at 570 nm of plastic tubes.

Assay [10] has as its system PA01. The assay is described as above. The following applies: compared with FRD1. Format: cell-based, P. aeruginosa. The procedure:
as §5

In assay [11] the test system is FRD1. Description: Propionate inhibition of growth. Format: cell-based, P. aeruginosa. The conditions noted are these: in the medium. The source says: (§6) FRD1 is much more susceptible to propionate inhibition than wildtype PA01. While PA01 is able to grow on 0.4% propionate, inhibition of FRD1 growth occurs at levels of 0.1% propionate and inhibition is complete as low as 0.2% propionate in the medium.

In assay [12] the test system is wildtype PA01. Kind of assay: Propionate inhibition of growth. The following applies: 0.4% propionate. Format: cell-based, P. aeruginosa.
Source text: as §6

The subject of assay [13] is FRD1. Description: Effect of ibuprofen on growth of FRD1 (absorbance at 600 nm). Type of assay: cell-based, P. aeruginosa. The following applies: Pseudomonas aeruginosa, 2 ml LB cultures, read-out: percent inhibition of growth. As to the method: Ibuprofen is known to generate propionic acid when metabolized and was thus tested for its ability to inhibit the growth of FRD1. Other propionate-generating compounds include certain α4β1 integrin antagonists described by DuPlantier, A. J., et al., Bioorg. Med. Chem. Let. (2001) 11:2593–2596. Using absorbance at 600 nm as the criterion, growth inhibition was detected at a concentration of 0.5 mg/ml of ibuprofen added to 2 ml LB cultures; the percent inhibition at this level was 19%. Inhibition increased in a dose-dependent manner to 72% at 5 mg/ml, and was similar at 10 mg/ml (73%).

The test system of assay [14] is PA01, FRD1 and mucoid clinical isolate strains (acnC or acnA disrupted). Description: Growth on propanediol as carbon source. Type of assay: cell-based, P. aeruginosa. The conditions noted are these: all strains.
Source text: as §1

Assay [15] concerns FRD1. Description: Reversal of propionate growth inhibition by TCA intermediates in M9 minimal media. The conditions noted are these: 0.4% propionate. Format: cell-based, P. aeruginosa. The procedure: This effect was tested by supplementing M9 minimal media with various TCA cycle components in the presence of 0.4% propionate.

As to `CCC(=O)O` [propionate, propionic acid], in the assay on PA01* [1], the “growth as compared to wildtype” value was “growth is diminished”. Further, the growth inhibition entry with mucoid clinical isolates is on record as “substantial growth inhibition”. Further, the “ability to grow after addition of propionic acid” value in [2] and in [3] was “completely abolished” each time. Besides, the “growth of wildtype on carbon source” value in the assay on PA01 wildtype is reported as “grow well”. The “growth of acnC disrupted strain on carbon source” value in [4] was “did not grow”. The “effect on growth inhibition by antibiotics” value in the assay with FRD1 [5] (CB-100 and CIP-5 discs) was “diminish the effect”. In addition, the “effect on efficiency of antibiotics” value with FRD1 [5] (remaining antibiotics (amikacin, tobramycin, tetracycline)) is “little, if any, effect”. In the assay on PA01 [6], the “effect on growth in the presence of antibiotics” value was “no effect”. The response of growth entry in the assay with PA01* [7] is recorded as “diminished growth”; in the assay with FRD1 [8], “diminished growth”; in the assay on wildtype PA01 [9], “does not respond”. Moreover, the figures for the “effect on attachment to plastic tubes” value in the assay with FRD1 cells and in the assay on PA01 [10] were “diminish significantly” and “less dramatic”, respectively. The “propionate level at which inhibition of growth is complete” value in the assay on FRD1 [11] is recorded as 0.2%. Also, the “propionate level at which inhibition of growth occurs” value in the assay on FRD1 [11] was 0.1%. The growth on propionate entry in the assay on wildtype PA01 [12] is on record as “able to grow”.
For `CCCCC(=O)O` [pentanoate, pentanoic acid], the “growth of wildtype on carbon source” value in the assay with PA01 wildtype is reported as “grow well”. Further, the “growth of acnC disrupted strain on carbon source” value in assay [4] is listed as “did not grow”.
For `O=CC(=O)O` [glyoxalate], the “difference in growth between wildtype and acnC disrupted strain” value (from here on “difference”) in assay [4] was “no difference”.
For `CC(C)Cc1ccc(C(C)C(=O)O)cc1` (stereo not drawn) [ibuprofen, Ibuprofen], the inhibition at 500 µg/mL in the assay with FRD1 [13] (0.5 mg/ml) is 19%. Also, in the assay with FRD1 [13] (5 mg/ml), the inhibition at 5000 µg/mL came to 72%. In the assay with FRD1 [13] (10 mg/ml), the inhibition at 10000 µg/mL is 73%.
In the case of `OCCCO` [1,3-propanediol], the “ability to grow on carbon source” value in assay [14] was “less able to grow”.
Regarding `O=C(O)CC(O)C(=O)O` (stereo not drawn) [malate], the “reversal of negative effects of propionate on growth” value (shortened to “reversal”) in the assay on FRD1 [15] is “successful”.
Consider `O=C(O)CC(O)(CC(=O)O)C(=O)O` [citrate], for which the “difference” value in [4] was “no difference”.
Turning to `CC(=O)O` [acetate], in [4], the “difference” value is “no difference”. The “reversal” value in the assay with FRD1 [15] is recorded as “successful”.
Regarding `O=C(O)CCC(=O)O` [succinate], in [4], the “difference” value is reported as “no difference”.
Turning to `CCCCCC(=O)O` [hexanoate, hexanoic acid], in assay [4], the “difference” value is given as “no difference”.
As for `N[C@@H](CCC(=O)O)C(=O)O` [glutamate], the “difference” value in assay [4] is listed as “no difference”. Further, in the assay with FRD1 [15], the “reversal” value is reported as “successful”.
`CC(O)CO` (stereo not drawn) [1,2-propanediol]: the “ability to grow on carbon source” value in assay [14] was “able to grow”.

The term inhibition denotes the percentage by which the read-out fell short of the control.

(Values after patent US7183100B2, “Aconitase” (priority 2003, dated 2007).)
